Source: patent US8394796B2, “Bicyclic pyrimidine PI3K inhibitor compounds selective for P110 delta, and methods of use” (Genentech, Inc., priority 2009, dated 2013)

Target: T1, p110δ/p85α (PI3K p110 delta) (Homo sapiens, UniProt O00329)
T1 construct: purchased Upstate Group, Millipore; Dundee, UK
Assay: PI3K isoform inhibition assay (fluorescence polarization PIP3 displacement; alternatively radiometric), p110 delta
Assay type: biochemical
Conditions: for IC50: PI3K p110 delta binding IC50; for IC50 p110 alpha/IC50 p110 delta: delta/alpha selectivity: ratio of p110 alpha IC50 to p110 delta IC50
Procedure: PI3K Isoform Inhibition Assay (p110 Alpha, Beta, Gamma, Delta: α, β, γ, δ)
PI3K enzymatic activity was assayed by measuring the amount of product phosphatidylinositol 3,4,5-phosphate (PIP3) formed from substrate 4,5 phosphatidylinositol 4,5-phosphate (PIP2) using a fluorescence polarization displacement assay. The decrease in fluorescence polarization of a fluorescent PIP3 probe is measured as it is displaced from a PIP3-binding protein GRP-1 detector by PI3K-catalyzed product. […] The kinase reactions were initiated by the addition of 40 ng/mL p110α/p85α, 300 ng/mL p110β/p85α, 40 ng/mL p110γ, or 40 ng/mL p110δ/p85α (Upstate Group, Millipore; Dundee, UK), and 10 μM PIP2 (Echelon Biosciences) to the wells. […] After 60 minutes of incubation at room temperature to allow equilibration of labeled and unlabeled PIP3 binding, the parallel and perpendicular components of the fluorescence emissions from each sample were measured at an excitation wavelength of 530 nm and an emission wavelength of 590 nm using an Envision fluorescent plate reader with a rhodamine filter (PerkinElmer Life and Analytical Sciences; Wellesley, Mass.). The assay is capable of detecting 0.1-2.0 μM PIP3 product. The IC50 values were obtained by fitting the dose-dependent inhibition data to a 4-parameter equation using Assay Explorer software (MDL, San Ramon, Calif.).
The Formula I compound was serially diluted in 100% DMSO. The kinase reaction was incubated for 1 h at room temperature, and the reaction was terminated by the addition of PBS. IC50 values were subsequently determined using sigmoidal dose-response curve fit (variable slope).
HT baculovirus expression system (GIBCO/BRL), and then purified for use in biochemical assays. The four Class I PI 3-kinases are cloned into baculovirus vectors as follows: […]

T1 sequence (O00329 whole entry): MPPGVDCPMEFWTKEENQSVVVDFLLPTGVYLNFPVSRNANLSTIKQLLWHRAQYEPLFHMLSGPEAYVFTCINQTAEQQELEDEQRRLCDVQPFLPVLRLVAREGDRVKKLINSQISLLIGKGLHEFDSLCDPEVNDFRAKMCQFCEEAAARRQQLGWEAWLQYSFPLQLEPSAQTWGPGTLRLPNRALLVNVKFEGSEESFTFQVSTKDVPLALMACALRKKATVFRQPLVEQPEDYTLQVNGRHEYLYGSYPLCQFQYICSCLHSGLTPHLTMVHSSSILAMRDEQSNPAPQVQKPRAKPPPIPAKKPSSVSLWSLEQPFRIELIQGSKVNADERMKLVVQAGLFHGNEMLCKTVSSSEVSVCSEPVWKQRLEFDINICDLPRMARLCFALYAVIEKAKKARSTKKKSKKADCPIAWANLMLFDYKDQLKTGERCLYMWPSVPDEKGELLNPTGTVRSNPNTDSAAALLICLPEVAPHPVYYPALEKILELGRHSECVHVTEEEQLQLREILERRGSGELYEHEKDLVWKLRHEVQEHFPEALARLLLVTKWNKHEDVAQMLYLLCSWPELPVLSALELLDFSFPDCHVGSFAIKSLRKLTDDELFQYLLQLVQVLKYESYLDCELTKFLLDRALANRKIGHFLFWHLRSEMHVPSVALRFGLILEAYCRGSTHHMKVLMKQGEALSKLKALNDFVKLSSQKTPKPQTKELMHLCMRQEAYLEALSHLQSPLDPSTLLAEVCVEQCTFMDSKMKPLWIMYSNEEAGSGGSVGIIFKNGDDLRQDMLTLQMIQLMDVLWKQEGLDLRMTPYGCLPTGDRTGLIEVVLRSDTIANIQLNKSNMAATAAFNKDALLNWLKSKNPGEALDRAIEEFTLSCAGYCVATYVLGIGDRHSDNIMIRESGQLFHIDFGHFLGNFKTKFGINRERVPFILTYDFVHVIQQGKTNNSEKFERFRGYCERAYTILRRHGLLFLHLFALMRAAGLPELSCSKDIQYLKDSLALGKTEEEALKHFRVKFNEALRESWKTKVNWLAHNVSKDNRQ
T1 sequence (P27986 whole entry partner): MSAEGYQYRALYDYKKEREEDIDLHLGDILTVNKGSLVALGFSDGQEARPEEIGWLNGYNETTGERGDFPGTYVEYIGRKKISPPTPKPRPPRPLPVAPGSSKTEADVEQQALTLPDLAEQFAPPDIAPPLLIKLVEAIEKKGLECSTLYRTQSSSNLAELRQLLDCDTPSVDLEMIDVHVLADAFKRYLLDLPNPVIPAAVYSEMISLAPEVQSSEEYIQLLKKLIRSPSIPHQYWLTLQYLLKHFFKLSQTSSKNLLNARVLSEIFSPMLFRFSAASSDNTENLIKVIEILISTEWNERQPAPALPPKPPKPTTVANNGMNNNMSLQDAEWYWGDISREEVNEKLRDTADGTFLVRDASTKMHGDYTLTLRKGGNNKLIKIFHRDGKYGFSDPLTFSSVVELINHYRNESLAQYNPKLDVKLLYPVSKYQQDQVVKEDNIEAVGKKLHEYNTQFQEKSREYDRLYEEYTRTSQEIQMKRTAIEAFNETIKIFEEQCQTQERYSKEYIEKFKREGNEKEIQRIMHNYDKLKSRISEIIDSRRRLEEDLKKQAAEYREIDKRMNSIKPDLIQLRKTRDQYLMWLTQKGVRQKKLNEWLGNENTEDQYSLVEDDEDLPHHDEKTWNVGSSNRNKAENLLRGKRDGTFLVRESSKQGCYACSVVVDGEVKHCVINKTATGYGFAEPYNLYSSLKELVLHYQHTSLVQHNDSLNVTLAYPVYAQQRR

| SMILES | IC50 [nM] | IC50 p110 alpha/IC50 p110 delta |
| --- | --- | --- |
| c1cc(-c2nc(N3CCOCC3)c3sc(CN4CCC(N5CCOCC5)CC4)cc3n2)c2ccncc2c1 [Example 101, 4-(1-((2-(isoquinolin-5-yl)-4-morpholinothieno[3,2-d]pyrimidin-6-yl)methyl)piperidin-4-yl)morpholine] | 101 | 53 |
| Cc1c(CN2CCN(C(C)(C)C(N)=O)CC2)sc2c(N3CCOCC3)nc(-c3cncc4[nH]ccc34)nc12 [Example 112, 2-methyl-2-(4-((7-methyl-4-morpholino-2-(1H-pyrrolo[2,3-c]pyridin-4-yl)thieno[3,2-d]pyrimidin-6-yl)methyl)piperazin-1-yl)propanamide] | 1.8 | 29 |
| Cn1c(CN2CCC(C(C)(C)O)CC2)nc2c(N3CCOCC3)nc(-c3cnc(N)c4ccccc34)nc21 [Example 115, 2-(1-((2-(1-aminoisoquinolin-4-yl)-9-methyl-6-morpholino-9H-purin-8-yl)methyl)piperidin-4-yl)propan-2-ol] | 7.2 | 34 |
| CC(C)(C(N)=O)N1CCN(Cc2nc3c(N4CCOCC4)nc(-c4cncc5[nH]ccc45)nc3s2)CC1 [Example 131, 2-methyl-2-(4-((7-morpholino-5-(1H-pyrrolo[2,3-c]pyridin-4-yl)thiazolo[5,4-d]pyrimidin-2-yl)methyl)piperazin-1-yl)propanamide] | 1.3 | 32 |
| CN(C)C1CCN(Cc2cc3nc(-n4ccc5cnccc54)nc(N4CCOCC4)c3s2)CC1 [Example 149, N,N-dimethyl-1-((4-morpholino-2-(1H-pyrrolo[3,2-c]pyridin-1-yl)thieno[3,2-d]pyrimidin-6-yl)methyl)piperidin-4-amine] | 6.9 | 30 |
| Cn1c(CN2CCC(C(C)(C)O)CC2)nc2c(N3CCOCC3)nc(-c3n[nH]c4ccccc34)nc21 [Example 162, 2-(1-((2-(1H-indazol-3-yl)-9-methyl-6-morpholino-9H-purin-8-yl)methyl)piperidin-4-yl)propan-2-ol] | 14.6 | 191 |
| COC(C)(C)C1CCN(Cc2nc3c(N4CCOCC4)nc(-c4c(C)oc5ccccc45)nc3n2C)CC1 [Example 200, 4-(8-((4-(2-methoxypropan-2-yl)piperidin-1-yl)methyl)-9-methyl-2-(2-methylbenzofuran-3-yl)-9H-purin-6-yl)morpholine] | 22.2 | 54 |
| Cc1oc2ccccc2c1-c1nc(N2CCOCC2)c2nc(CN3CCN(C(C)(C)C(N)=O)CC3)sc2n1 [Example 211, 2-methyl-2-(4-((5-(2-methylbenzofuran-3-yl)-7-morpholinothiazolo[5,4-d]pyrimidin-2-yl)methyl)piperazin-1-yl)propanamide] | 9.7 | >300 |
| CC(C)(C(N)=O)N1CCN(Cc2nc3nc(-c4cccc5nccn45)nc(N4CCOCC4)c3s2)CC1 [Example 248, 2-(4-((5-(imidazo[1,2-a]pyridin-5-yl)-7-morpholinothiazolo[4,5-d]pyrimidin-2-yl)methyl)piperazin-1-yl)-2-methylpropanamide] | 42.9 | 35 |
| CCc1nc2ccccc2n1-c1nc(N2CCOCC2)c2nc(CN3CCN(C(C)(C)CO)CC3)[nH]c2n1 [Example 489, 2-(4-((2-(2-ethyl-1H-benzo[d]imidazol-1-yl)-6-morpholino-9H-purin-8-yl)methyl)piperazin-1-yl)-2-methylpropan-1-ol] | 1.37 | 157 |
| Cn1c(CN2CC(C3CCOCC3)C2)nc2c(N3CCOCC3)nc(-n3c(C4CC4)nc4ccccc43)nc21 [Example 499, 4-(2-(2-cyclopropyl-1H-benzo[d]imidazol-1-yl)-9-methyl-8-((3-(tetrahydro-2H-pyran-4-yl)azetidin-1-yl)methyl)-9H-purin-6-yl)morpholine] | 6.3 | 75 |
| CCc1nc2ccccc2n1-c1nc(N2CCOCC2)c2nc(CC3CN(C4CCS(=O)(=O)CC4)C3)n(C)c2n1 [Example 501, 4-(2-(2-ethyl-1H-benzo[d]imidazol-1-yl)-9-methyl-8-((1-(tetrahydro-2H-(1,1-dioxo)-thiopyran-4-yl)azetidin-3-yl)methyl)-9H-purin-6-yl)morpholine] | 0.589 | 140 |
| CCc1nc2ccccc2n1-c1nc(N2CCOCC2)c2nc(CN3C[C@@H]4C[C@H]3CN4C(C)(C)CO)n(C)c2n1 [Example 521, 2-((1S,4S)-5-((2-(2-ethyl-1H-benzo[d]imidazol-1-yl)-9-methyl-6-morpholino-9H-purin-8-yl)methyl)-2,5-diazabicyclo[2.2.1]heptan-2-yl)-2-methylpropan-1-ol] | 1.45 | 150 |
| CCc1nc2ccccc2n1-c1nc(N2CCOCC2)c2nc(CCN3CCOCC3(C)C)n(C)c2n1 [Example 535, 4-(2-(2-(2-ethyl-1H-benzo[d]imidazol-1-yl)-9-methyl-6-morpholino-9H-purin-8-yl)ethyl)-3,3-dimethylmorpholine] | 9.9 | 49 |
| CCc1nc2ccccc2n1-c1nc(N2CCOCC2)c2nc(CC(=O)N3CCC(C(C)(C)O)CC3)sc2n1 [Example 549, 2-(5-(2-ethyl-1H-benzo[d]imidazol-1-yl)-7-morpholinothiazolo[5,4-d]pyrimidin-2-yl)-1-(4-(2-hydroxypropan-2-yl)piperidin-1-yl)ethanone] | 9.4 | 14 |
| CC(C)c1nc2ccccc2n1-c1nc(N2CCOCC2)c2nc(-c3cccnc3)n(C)c2n1 [Example 676, 4-(2-(2-isopropyl-1H-benzo[d]imidazol-1-yl)-9-methyl-8-(pyridin-3-yl)-9H-purin-6-yl)morpholine] | 13.6 | 14 |
| COc1cccc(-c2nc3c(N4CCOCC4)nc(-n4c(C(C)C)nc5ccccc54)nc3n2C)c1 [Example 683, 4-(2-(2-isopropyl-1H-benzo[d]imidazol-1-yl)-8-(3-methoxyphenyl)-9-methyl-9H-purin-6-yl)morpholine] | 31.7 | 23 |
| CCc1nc2ccccc2n1-c1nc(N2CCOCC2)c2nc(CN3CCC(C(C)(C)O)CC3)[nH]c2n1 [Example 701, 2-(1-((2-(2-ethyl-1H-benzo[d]imidazol-1-yl)-6-morpholino-9H-purin-8-yl)methyl)piperidin-4-yl)propan-2-ol] |  | 50 |
